Assay results from PubChem BioAssay (NCI).
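Results reflect a 48-hour exposure of cells in 96-well plates to compound at five concentrations. TGI marks complete inhibition of growth.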

Experiments:
Assay in all cases: NCI tumour cell line growth inhibition, 48 h
[1] = test system: RXF 393 renal
[2] = test system: K-562 leukemia
[3] = test system: UACC-62 melanoma
[4] = test system: SK-MEL-2 melanoma
[5] = test system: OVCAR-3 ovarian
[6] = test system: OVCAR-5 ovarian
[7] = test system: MOLT-4 leukemia
[8] = test system: MDA-MB-231 breast
[9] = test system: NCI/ADR-RES ovarian
[10] = test system: MDA-MB-435

Compound	TGI [1] [µM]	TGI [2] [µM]	TGI [3] [µM]	TGI [4] [µM]	TGI [5] [µM]	TGI [6] [µM]	TGI [7] [µM]	TGI [8] [µM]	TGI [9] [µM]	TGI [10] [µM]
CSCSSC	> 100	> 100	> 100	> 100	> 100	> 100	90.3	> 100	> 100	> 100
Cc1ccc(/C(O)=C/c2nc3ccccc3sc2=O)c(C)c1	18.2	> 100	> 100	> 100	> 100	> 100	> 100	> 100	> 100	> 100
CC(C)=NN/C(=N\S(=O)(=O)c1ccc(Oc2cccc(Cl)c2C#N)cc1)Nc1ccc(Cl)cc1	–	> 100	> 100	> 100	> 100	> 100	> 100	> 100	> 100	> 100
O=C1C[C@@H](C(=O)OCc2ccccc2)NC(=O)C[C@@H](C(=O)OCc2ccccc2)NC(=O)C[C@@H](C(=O)OCc2ccccc2)N1	41.8	21.8	> 100	66.1	> 100	> 100	27.3	70.9	> 100	> 100
O=[N+]([O-])c1ccc2sc(C=Nc3cnccn3)cc2c1	33.5	88.6	53.1	75.2	> 100	> 100	34.3	> 100	> 100	> 100
NCCCN(CCCN(C(=O)Nc1ccccc1)c1ccccc1)C(=O)Nc1ccccc1	86.2	> 100	58	55.6	–	> 100	> 100	> 100	> 100	–
CCOC(=O)c1nc2ccc(C(F)(F)F)cc2nc1Oc1cc(OC)c(OC)c(OC)c1	> 100	> 100	> 100	> 100	> 100	> 100	> 100	> 100	> 100	> 100
O=C1CCCCCCCCCCC1CN1CCCC1 (centres undefined)	65.4	> 100	36.7	99.7	> 100	> 100	> 100	> 100	> 100	> 100
O=C1NC(=O)C(C(CC(=O)c2ccc([N+](=O)[O-])cc2)c2ccccc2)C(=O)N1 (centres undefined)	55.8	> 100	> 100	> 100	> 100	> 100	> 100	> 100	> 100	> 100
NC(=O)c1cccc([N+](=O)[O-])c1	–	> 100	> 100	> 100	> 100	–	> 100	–	–	–
CC(=O)N1CC(C)(C)c2c(C)c(O)c(C)c(C)c21	> 100	> 100	> 100	–	> 100	> 100	> 100	> 100	> 100	> 100
COc1ccc(C2=Nc3cc(C)c(C)cc3NC(c3ccccc3)C2)cc1 (centres undefined)	> 100	> 100	> 100	> 100	> 100	> 100	> 100	> 100	> 100	> 100
CC1C(=O)N(c2ccccc2)NC12CCCc1ccccc12 (centres undefined)	> 100	> 100	> 100	> 100	> 100	> 100	> 100	> 100	> 100	> 100
Cc1cc(S(=O)(=O)N/C(=C(\C#N)C(=O)c2ccc(Cl)cc2)[n+]2ccc(N(C)C)cc2)c([S-])cc1Cl	> 100	> 100	> 100	83.4	> 100	> 100	> 100	> 100	> 100	> 100
CC(=C(c1ccccc1)c1ccccc1)N1C(=O)CC(=O)N1C	61.6	> 100	83.6	> 100	> 100	> 100	76.3	–	> 100	> 100
COc1ccc(N2C(=O)CC(=O)N(C(=O)COc3ccc(OCC(=O)N4C(=O)CC(=O)N(c5ccc(OC)cc5)C4=S)cc3)C2=S)cc1	77.3	> 100	> 100	> 100	–	> 100	> 100	> 100	> 100	> 100
C[N+](C)(C)c1ccc(C(N)C(=O)O)cc1 (centres undefined)	> 100	> 100	> 100	> 100	> 100	> 100	–	> 100	> 100	> 100
OCCO/N=C1\C(c2c(O)[nH]c3ccccc23)=Nc2ccccc21	> 100	> 100	> 100	> 100	> 100	> 100	> 100	–	> 100	> 100
COc1cc([C@@H]2c3cc4c(cc3[C@@H](c3c(O)cc(O)c5c3O[C@H](c3ccc(O)c(O)c3)[C@@H](O)C5)[C@H]3COC(=O)[C@H]23)OCO4)cc(OC)c1OC	3.28	78.5	3.13	3.75	3.22	69.7	> 100	3.28	> 100	3.13
COc1c(O)c(C=O)c2c(O)c(-c3c(C)cc4c(C(C)C)c(OC)c(O)c(C=O)c4c3O)c(C)cc2c1C(C)C	5.75	> 100	29	11.1	10.7	20.7	27.9	–	–	–
CN(C)c1nc(N)nc(CS)n1	> 100	> 100	> 100	> 100	> 100	> 100	> 100	> 100	> 100	> 100
Cc1cccc(Nc2nn3c(=O)c4c5c(sc4nc3s2)CCCC5)c1	62.8	> 100	5.92	> 100	> 100	> 100	> 100	> 100	> 100	> 100
